Reference: US11845730B2, “1,3-substituted cyclobutyl derivatives and uses thereof” (Novartis AG, priority 2021, dated 2023)
Where a name gives a salt, the structure may show the parent alone.

Target: human TRPV1 (Homo sapiens (Human), UniProt Q8NER1)
Details: read-out: IC50 (μM), antagonist effect against human TRPV1; CHO cells expressing human TrpV1; stimulated with 2.5 μM NADA (EC80); mean of at least three independent experiments

Chain of human TRPV1 (Q8NER1 whole entry): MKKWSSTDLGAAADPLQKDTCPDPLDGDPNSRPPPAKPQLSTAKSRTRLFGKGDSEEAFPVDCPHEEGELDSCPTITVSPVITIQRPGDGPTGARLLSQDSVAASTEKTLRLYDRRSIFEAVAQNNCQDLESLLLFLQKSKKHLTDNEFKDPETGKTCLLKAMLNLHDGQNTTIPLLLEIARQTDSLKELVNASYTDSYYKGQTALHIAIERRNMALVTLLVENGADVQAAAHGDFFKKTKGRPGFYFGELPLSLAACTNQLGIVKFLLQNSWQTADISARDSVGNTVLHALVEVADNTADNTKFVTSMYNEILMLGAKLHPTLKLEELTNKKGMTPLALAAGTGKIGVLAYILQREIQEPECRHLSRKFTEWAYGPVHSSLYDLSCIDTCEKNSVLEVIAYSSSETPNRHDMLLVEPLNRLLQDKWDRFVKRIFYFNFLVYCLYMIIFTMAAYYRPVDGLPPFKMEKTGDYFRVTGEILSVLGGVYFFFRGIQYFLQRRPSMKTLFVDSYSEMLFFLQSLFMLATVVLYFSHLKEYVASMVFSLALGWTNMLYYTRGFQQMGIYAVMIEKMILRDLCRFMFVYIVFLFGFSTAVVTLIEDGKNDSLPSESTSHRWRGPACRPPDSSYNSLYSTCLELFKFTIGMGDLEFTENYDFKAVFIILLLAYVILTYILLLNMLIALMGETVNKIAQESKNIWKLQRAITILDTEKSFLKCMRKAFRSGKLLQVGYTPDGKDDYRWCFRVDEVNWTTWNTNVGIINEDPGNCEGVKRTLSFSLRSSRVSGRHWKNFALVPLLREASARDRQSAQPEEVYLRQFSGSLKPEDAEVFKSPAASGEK

Going from `Fc1ccc2cnccc2c1CN[C@H]1C[C@H](Oc2cccc(S(F)(F)(F)(F)F)c2)C1` [Example 33, (1r,3r)-N-((6-fluoroisoquinolin-5-yl)methyl)-3-(3-(pentafluoro-λ^6-sulfaneyl)phenoxy)cyclobutan-1-amine, HCl] to `Fc1ccc2cnccc2c1CN[C@H]1C[C@H](Oc2cccc(OC(F)(F)F)c2)C1` [Example 37, (1r,3r)-N-((6-fluoroisoquinolin-5-yl)methyl)-3-(3-(trifluoromethoxy)phenoxy)cyclobutan-1-amine, HCl], the IC50 rises from 0.0154 µM to 0.0813 µM (5.3-fold). The first is the more potent here.

Compared with `CCOC(=O)c1cccc(O[C@H]2C[C@H](NCc3c(F)ccc4cnccc34)C2)c1` [Example 34, ethyl 3-((1r,3r)-3-(((6-fluoroisoquinolin-5-yl)methyl)amino)cyclobutoxy)benzoate, HCl], `CCOC(=O)c1cc(O[C@H]2C[C@H](NCc3c(F)ccc4cnccc34)C2)ccc1C(F)(F)F` [Example 60, ethyl 5-((1r,3r)-3-(((6-fluoroisoquinolin-5-yl)methyl)amino)cyclobutoxy)-2-(trifluoromethyl)benzoate] is 3.8-fold higher in IC50: 0.0836 µM for the first, 0.32 µM for the second. The first is the more potent here.

Compared with `Fc1cccc(O[C@H]2C[C@H](NCc3c(F)ccc4cnccc34)C2)c1F` [Example 35, (1r,3r)-3-(2,3-difluorophenoxy)-N-((6-fluoroisoquinolin-5-yl)methyl)cyclobutan-1-amine], `Fc1ccc(O[C@H]2C[C@H](NCc3c(F)ccc4cnccc34)C2)c(F)n1` [Example 55, (1r,3r)-3-((2,6-difluoropyridin-3-yl)oxy)-N-((6-fluoroisoquinolin-5-yl)methyl)cyclobutan-1-amine] is 2.8-fold higher in IC50: 0.128 µM for the first, 0.352 µM for the second. The first is the more potent here.

Compared with `Fc1ccc2cnccc2c1CN[C@H]1C[C@H](Oc2ccc(OC(F)(F)F)cc2)C1` [Example 36, (1r,3r)-N-((6-fluoroisoquinolin-5-yl)methyl)-3-(4-(trifluoromethoxy)phenoxy)cyclobutan-1-amine, HCl], `Fc1ccc(O[C@H]2C[C@H](NCc3c(F)ccc4cnccc34)C2)cc1OC(F)(F)F` [Example 38, (1r,3r)-3-(4-fluoro-3-(trifluoromethoxy)phenoxy)-N-((6-fluoroisoquinolin-5-yl)methyl)cyclobutan-1-amine, HCl] is 1.9-fold lower in IC50: 0.0989 µM for the first, 0.0514 µM for the second.

First: Fc1ccc2cnccc2c1CN[C@H]1C[C@H](Oc2ccc3c(c2)OC(F)(F)C(F)(F)O3)C1 [Example 39, (1r,3r)-N-((6-fluoroisoquinolin-5-yl)methyl)-3-((2,2,3,3-tetrafluoro-2,3-dihydrobenzo[b][1,4]dioxin-6-yl)oxy)cyclobutan-1-amine, HCl]
Second: Fc1ccc2cnccc2c1CN[C@H]1C[C@H](Oc2ccc3c(c2)OC(F)(F)O3)C1 [Example 46, (1r,3r)-3-((2,2-difluorobenzo[d][1,3]dioxol-5-yl)oxy)-N-((6-fluoroisoquinolin-5-yl)methyl)cyclobutan-1-amine, HCl]
The IC50 of the first is 3.7-fold lower: 0.0108 µM for the first, 0.0402 µM for the second. The first is the more potent here.

`FCC(F)c1cc(O[C@H]2C[C@H](NCc3c(F)ccc4cnccc34)C2)ccc1F` (some centres unmarked) [Example 40, (1r,3r)-3-(3-(1,2-difluoroethyl)-4-fluorophenoxy)-N-((6-fluoroisoquinolin-5-yl)methyl)cyclobutan-1-amine] and `FCc1cc(O[C@H]2C[C@H](NCc3c(F)ccc4cnccc34)C2)ccc1F` [Example 41, (1r,3r)-3-(4-fluoro-3-(fluoromethyl)phenoxy)-N-((6-fluoroisoquinolin-5-yl)methyl)cyclobutan-1-amine, HCl] are within 1.5-fold of each other in IC50: 0.124 µM for the first, 0.09 µM for the second.

Compared with `Fc1ccc2cnccc2c1CN[C@H]1C[C@H](Oc2ccc(C3CC3(F)F)cc2)C1` (some centres unmarked) [Example 42, (1r,3r)-3-(4-(2,2-difluorocyclopropyl)phenoxy)-N-((6-fluoroisoquinolin-5-yl)methyl)cyclobutan-1-amine, HCO2H], `Fc1ccc(O[C@H]2C[C@H](NCc3c(F)ccc4cnccc34)C2)cc1OC(F)F` [Example 50, (1r,3r)-3-(3-(difluoromethoxy)-4-fluorophenoxy)-N-((6-fluoroisoquinolin-5-yl)methyl)cyclobutan-1-amine] is 2.1-fold lower in IC50: 0.173 µM for the first, 0.0806 µM for the second.

First: CC(C)c1cc(O[C@H]2C[C@H](NCc3cccc4cnccc34)C2)ccc1F [Example 43, (1r,3r)-3-(4-fluoro-3-isopropylphenoxy)-N-(isoquinolin-5-ylmethyl)cyclobutan-1-amine, HCl]
Second: O=C(Cc1cccc2cnccc12)N[C@H]1C[C@H](Oc2ccc(F)c(C(F)(F)F)c2)C1 [Example 65, N-((1r,3r)-3-(4-fluoro-3-(trifluoromethyl)phenoxy)cyclobutyl)-2-(isoquinolin-5-yl)acetamide]
The IC50 of the first is 540-fold higher: 0.528 µM for the first, 0.00098 µM for the second. The second is the more potent here.

First: Fc1ccc2cnccc2c1CN[C@H]1C[C@H](Oc2cccc(C3(C(F)(F)F)CCO3)c2)C1 (some centres unmarked) [Example 44, (1r,3r)-N-((6-fluoroisoquinolin-5-yl)methyl)-3-(3-(2-(trifluoromethyl)oxetan-2-yl)phenoxy)cyclobutan-1-amine]
Second: Fc1ccc2cnccc2c1CN[C@H]1C[C@H](Oc2ccnc(C(F)(F)F)c2)C1 [Example 56, (1r,3r)-N-((6-fluoroisoquinolin-5-yl)methyl)-3-((2-(trifluoromethyl)pyridin-4-yl)oxy)cyclobutan-1-amine]
The IC50 of the first is 3.7-fold lower: 0.0326 µM for the first, 0.119 µM for the second. The first is the more potent here.

Going from `CC(C)(C)c1c(F)cc(O[C@H]2C[C@H](NCc3c(F)cc(CO)c4cnccc34)C2)cc1F` [Example 45, (5-((((1r,3r)-3-(4-(tert-butyl)-3,5-difluorophenoxy)cyclobutyl)amino)methyl)-6-fluoroisoquinolin-8-yl)methanol] to `Cc1c(F)cc(O[C@H]2C[C@H](NCc3c(F)cc(CO)c4cnccc34)C2)cc1F` [Example 53, (5-((((1r,3r)-3-(3,5-difluoro-4-methylphenoxy)cyclobutyl)amino)methyl)-6-fluoroisoquinolin-8-yl)methanol], the IC50 rises from 0.0188 µM to 0.0769 µM (4.1-fold). The first is the more potent here.

`OCc1cc(F)c(CN[C@H]2C[C@H](Oc3ccc4c(c3)OC(F)(F)O4)C2)c2ccncc12` [Example 47, (5-((((1r,3r)-3-((2,2-difluorobenzo[d][1,3]dioxol-5-yl)oxy)cyclobutyl)amino)methyl)-6-fluoroisoquinolin-8-yl)methanol, HCl] and `COc1c(F)cc(O[C@H]2C[C@H](NCc3c(F)cc(CO)c4cnccc34)C2)cc1F` [Example 48, (5-((((1r,3r)-3-(3,5-difluoro-4-methoxyphenoxy)cyclobutyl)amino)methyl)-6-fluoroisoquinolin-8-yl)methanol] are within 1.5-fold of each other in IC50: 0.0238 µM for the first, 0.0345 µM for the second.

First: COc1c(F)cc(O[C@H]2C[C@H](NCc3c(F)ccc4cnccc34)C2)cc1F [Example 49, (1r,3r)-3-(3,5-difluoro-4-methoxyphenoxy)-N-((6-fluoroisoquinolin-5-yl)methyl)cyclobutan-1-amine]
Second: Cc1c(F)cc(O[C@H]2C[C@H](NCc3c(F)ccc4cnccc34)C2)cc1F [Example 52, (1r,3r)-3-(3,5-difluoro-4-methylphenoxy)-N-((6-fluoroisoquinolin-5-yl)methyl)cyclobutan-1-amine]
The IC50 of the first is 1.7-fold lower: 0.0163 µM for the first, 0.0271 µM for the second.

Compared with `Fc1cc(O[C@H]2C[C@H](NCc3c(F)ccc4cnccc34)C2)ccc1OC(F)F` [Example 51, (1r,3r)-3-(4-(difluoromethoxy)-3-fluorophenoxy)-N-((6-fluoroisoquinolin-5-yl)methyl)cyclobutan-1-amine], `Fc1cc(O[C@H]2C[C@H](NCc3c(F)ccc4cnccc34)C2)cnc1F` [Example 57, (1r,3r)-3-((5,6-difluoropyridin-3-yl)oxy)-N-((6-fluoroisoquinolin-5-yl)methyl)cyclobutan-1-amine] is 5.6-fold higher in IC50: 0.117 µM for the first, 0.656 µM for the second.

First: Cc1cc(O[C@H]2C[C@H](NCc3c(F)ccc4cnccc34)C2)cc(F)c1F [Example 54, (1r,3r)-3-(3,4-difluoro-5-methylphenoxy)-N-((6-fluoroisoquinolin-5-yl)methyl)cyclobutan-1-amine]
Second: Fc1ccc2cnccc2c1CN[C@H]1C[C@H](Oc2cnc(Cl)c(C(F)(F)F)c2)C1 [Example 62, (1r,3r)-3-((6-chloro-5-(trifluoromethyl)pyridin-3-yl)oxy)-N-((6-fluoroisoquinolin-5-yl)methyl)cyclobutan-1-amine]
The IC50 of the first is 5.6-fold lower: 0.0595 µM for the first, 0.336 µM for the second. The first is the more potent here.

First: Fc1ccc2cnccc2c1CN[C@H]1C[C@H](Oc2ccc(C(F)(F)F)nc2F)C1 [Example 58, (1r,3r)-3-((2-fluoro-6-(trifluoromethyl)pyridin-3-yl)oxy)-N-((6-fluoroisoquinolin-5-yl)methyl)cyclobutan-1-amine]
Second: N#Cc1c(O[C@H]2C[C@H](NCc3c(F)ccc4cnccc34)C2)cccc1C(F)(F)F [Example 61, 2-((1r,3r)-3-(((6-fluoroisoquinolin-5-yl)methyl)amino)cyclobutoxy)-6-(trifluoromethyl)benzonitrile]
The IC50 of the first is 2.3-fold lower: 0.0829 µM for the first, 0.194 µM for the second.

Compared with `N#Cc1cc(O[C@H]2C[C@H](NCc3c(F)ccc4cnccc34)C2)ccc1C(F)(F)F` [Example 59, 5-((1r,3r)-3-(((6-fluoroisoquinolin-5-yl)methyl)amino)cyclobutoxy)-2-(trifluoromethyl)benzonitrile], `Fc1cc(CO[C@H]2C[C@H](NCc3c(F)ccc4cnccc34)C2)ccc1C(F)(F)F` [Example 64, (1r,3r)-3-((3-fluoro-4-(trifluoromethyl)benzyl)oxy)-N-((6-fluoroisoquinolin-5-yl)methyl)cyclobutan-1-amine] is 2.2-fold higher in IC50: 0.0758 µM for the first, 0.163 µM for the second.

Going from `Fc1ccc(NC2CC(NCc3c(F)ccc4cnccc34)C2)cc1C(F)(F)F` (centres unmarked) [Example 63, N^1-(4-fluoro-3-(trifluoromethyl)phenyl)-N^3-((6-fluoroisoquinolin-5-yl)methyl)cyclobutane-1,3-diamine] to `CS(=O)(=O)NCC(O)c1cc(F)c(CN[C@H]2C[C@H](Oc3ccc(F)c(C(F)(F)F)c3)C2)c2ccncc12` (some centres unmarked) [Example 66, N-(2-(6-fluoro-5-((((1r,3r)-3-(4-fluoro-3-(trifluoromethyl)phenoxy)cyclobutyl)amino)methyl)isoquinolin-8-yl)-2-hydroxyethyl)methanesulfonamide], the IC50 rises from 0.0986 µM to 1.11 µM (11-fold).

`NS(=O)(=O)NCC(O)c1cc(F)c(CN[C@H]2C[C@H](Oc3ccc(F)c(C(F)(F)F)c3)C2)c2ccncc12` (some centres unmarked) [Example 67, N-(2-(6-fluoro-5-((((1r,3r)-3-(4-fluoro-3-(trifluoromethyl)phenoxy)cyclobutyl)amino)methyl)isoquinolin-8-yl)-2-hydroxyethyl) sulfuric diamide] was tested, and the IC50 was 0.00377 µM.
